Where “and” joins values, the source holds several entries; their conditions need not be identical. Equal entries are not always repeated.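 Following 48 hours of exposure in 96-well plates, responses at five concentrations were used to interpolate endpoints linearly. Abbreviation: GI50, concentration required for 50% inhibition of growth. TGI is the concentration that stops growth completely.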 *1 amine or outer side, *2 acyl side, *3 side chain or, on linkers, in order; H or OH if unused. Where a SMILES comes first, the peptide text is derived from it. Bridges are numbered along the chain shown (N, C = ends). Roman numbers before positions name the chains, in order. [ ]: non-standard residue; d: D form. Actinocin(9to1) = Cc1c2oc3c(C)ccc(C(=O)[*:1])c3nc-2c(C(=O)[*:2])c(N)c1=O; NMeT = CN[CH](C(=O)O)[CH](C)O; Sar = CNCC(=O)O
Key:
Experiment in all cases: growth of human tumour cells (NCI), 48 h
A549 NSCLC = test system: A549 NSCLC
EKVX NSCLC = test system: EKVX NSCLC
NCI-H522 lung = test system: NCI-H522 lung
OVCAR-8 ovarian = test system: OVCAR-8 ovarian
RXF 393 renal = test system: RXF 393 renal
SF-539 CNS = test system: SF-539 CNS
SK-MEL-28 melanoma = test system: SK-MEL-28 melanoma
SK-MEL-5 melanoma = test system: SK-MEL-5 melanoma
SR leukemia = test system: SR leukemia
T-47D breast = test system: T-47D breast

| SMILES | GI50 (A549 NSCLC) | TGI (A549 NSCLC) [µM] | GI50 (EKVX NSCLC) | TGI (EKVX NSCLC) | GI50 (NCI-H522 lung) | TGI (NCI-H522 lung) | GI50 (OVCAR-8 ovarian) | TGI (OVCAR-8 ovarian) | GI50 (RXF 393 renal) | TGI (RXF 393 renal) | GI50 (SF-539 CNS) | TGI (SF-539 CNS) | GI50 (SK-MEL-28 melanoma) | TGI (SK-MEL-28 melanoma) | GI50 (SK-MEL-5 melanoma) | TGI (SK-MEL-5 melanoma) | GI50 (SR leukemia) | TGI (SR leukemia) | GI50 (T-47D breast) | TGI (T-47D breast) [µM] |
| --- | --- | --- | --- | --- | --- | --- | --- | --- | --- | --- | --- | --- | --- | --- | --- | --- | --- | --- | --- | --- |
| Cc1ccc2c(-c3ccnc(Nc4ccccc4)n3)c(-c3ccc(F)cc3)nn2n1 | 5280 nM | > 25 | 6530 nM | > 25 µM | 4340 nM | 13.9 µM | 9790 nM | > 25 µM | 3770 nM | > 18.7 µM | 6990 nM | > 19.3 µM | 12200 nM | > 25 µM | 4750 nM | 11.4 µM | 11700 nM | > 25 µM | 7450 nM | > 25 |
| C#CC1(OC(C)=O)CCC2C3CC=C4C=C(OC(C)=O)CCC4(C)C3CCC21C (stereo not given) | – | > 100 | – | 80 µM | – | 34.9 µM | – | 46.3 µM | – | – | – | 40.1 µM | – | 53.6 µM | – | 34.1 µM | – | 35 µM | – | > 100 |
| Cc1c2oc3c(C)ccc(C(=O)NC4C(=O)NC(C(C)C)C(=O)N5CCCC5C(=O)N(C)CC(=O)N(C)C(C(C)O)C(=O)OC4C)c3nc-2c(C(=O)NC2C(=O)NC(C(C)C)C(=O)N3CCCC3C(=O)N(C)CC(=O)N(C)C(C(C)O)C(=O)OC2C)c(N)c1=O (stereo not given) (I: TVP[Sar][NMeT] / II: TVP[Sar][NMeT]; ester I:1-I:C, II:1-II:C; linker I:N-II:N via Actinocin(9to1); configuration not given here) | 2860 nM and > 1000 nM | > 100 | 2560 nM and > 1000 nM | 25 µM and > 1 µM | – | 1.53 µM and > 1 µM | – | > 43.8 µM | – | 2.95 µM and > 1 µM | – | 18 µM and > 1 µM | – | 4.96 µM and > 1 µM | 473 nM and > 1000 nM | 2.9 µM and > 1 µM | 1100 nM and 187 nM | 5.35 µM and > 1 µM | 2670 nM and > 1000 nM | > 100 |
| C/C(=N\Nc1cc(C)c2ccccc2n1)c1ccccn1 | 71.4 nM | 1.17 | – | – | 53.4 nM | 0.319 µM | 53.5 nM | 1.35 µM | 290 nM | 1.82 µM | 77.8 nM | 0.693 µM | 362 nM | 1.96 µM | 130 nM | 1.28 µM | < 29.3 nM | 2.39 µM | < 20.8 nM | 2.78 |
| CC(C)C[C@H](NC(=O)Cn1ccc(NCc2ccccc2)cc1=O)B(O)O | 5150 nM | > 100 | – | – | 691 nM | 3.08 µM | 4690 nM | > 100 µM | 346 nM | 1.31 µM | 296 nM | 1.13 µM | 600 nM | 47 µM | 678 nM | 2.89 µM | 281 nM | 14.5 µM | 785 nM | 12.4 |
| Cc1ccc(NC2=C(Cl)C(=O)N(Cc3ccc(Cl)cc3)C2=O)cc1O | 10500 nM | 29.2 | – | – | 11600 nM | 34.3 µM | 7100 nM | 38.6 µM | 10400 nM | 36.4 µM | 3100 nM | 16.2 µM | 14800 nM | 44.4 µM | 12600 nM | 28 µM | 71400 nM | > 100 µM | 10700 nM | 42.6 |
| CC1=C(C(=O)Nc2ccc(Cl)c(Cl)c2)C(c2cccc(Cl)c2)NC(=O)N1 (stereo not given) | 17300 nM | > 50 | 7840 nM | 16.2 µM | 9530 nM | 18.5 µM | 14800 nM | > 37.7 µM | 13800 nM | 32.6 µM | 6480 nM | 13.2 µM | – | – | 8930 nM | 17.4 µM | 22300 nM | > 50 µM | 19200 nM | > 50 |
| Cc1cc(=O)oc2c(C)c(O)ccc12 | – | > 100 | – | > 100 µM | – | > 100 µM | – | > 100 µM | – | > 100 µM | – | > 100 µM | – | > 100 µM | – | > 100 µM | – | > 100 µM | – | > 100 |
| COc1cc2ncn(-c3cc(O[C@@H](C)c4ccccc4Cl)c(C(N)=O)s3)c2cc1OC | 1450 nM | > 25 | 6660 nM | > 25 µM | 434 nM | 6.51 µM | 1450 nM | > 25 µM | 346 nM | > 22.9 µM | 832 nM | > 25 µM | 3840 nM | > 25 µM | 247 nM | 5.26 µM | 701 nM | > 18.8 µM | 1800 nM | 7.09 |
| C=C(CN1CCN(c2cccc(C(F)(F)F)n2)CC1)c1ccc(C(=O)Nc2ccccc2N)cc1 | 3330 nM and 390 nM | > 100 | 24300 nM and 2730 nM | > 100 µM | 1110 nM and 896 nM | > 100 µM and 38.1 µM | 4250 nM and 1090 nM | 55.4 µM and > 79 µM | 672 nM and 2120 nM | 26.1 µM and > 100 µM | 978 nM and 331 nM | 16.8 µM and 2.05 µM | 2080 nM and 422 nM | > 100 µM and 15.5 µM | 403 nM and 397 nM | – | > 39100 nM | > 100 µM | 3010 nM and 616 nM | > 100 |
| Cc1ccc(Cc2cnc(NC(=O)/C=C/c3cccc(C)c3)s2)cc1 | 290 nM | > 67.7 | 403 nM | > 100 µM | 151 nM | > 100 µM | 447 nM | > 44.5 µM | 106 nM | 0.671 µM | 149 nM | 0.9 µM | 1350 nM | > 100 µM | 404 nM | > 100 µM | 44.9 nM | 2.23 µM | 577 nM | > 100 |
| C=C1C(=O)O[C@H]2[C@H]1CC/C(COC(=O)C(=O)c1cn(C)c3ccc(Cl)cc13)=C\CC[C@@]1(C)O[C@@H]21 | 2200 nM | 4.82 | 1920 nM | 4.29 µM | 1240 nM | 2.68 µM | 2100 nM | 10.1 µM | 1060 nM | 2.33 µM | 1660 nM | 3.36 µM | 1490 nM | 3.72 µM | 1550 nM | 2.91 µM | 300 nM | 50 µM | 1460 nM | 3.27 |
| O=C1CC(=O)N(C(=O)c2nn(-c3ccc(Cl)cc3)cc2O)N1 | 360 nM | > 100 | 845 nM | > 100 µM | 299 nM | 3.17 µM | 636 nM | > 100 µM | 191 nM | > 47 µM | 371 nM | > 63 µM | 2820 nM | > 100 µM | 1690 nM | 12 µM | 260 nM | 5.04 µM | 431 nM | > 71.6 |

— PubChem BioAssay (NCI)
